Measured values taken from patent publication EP4778931A1, “ULK1 INHIBITOR, PREPARATION METHOD THEREFOR AND USE THEREOF” (Dovetree Medicines Unus, Inc., priority 2023, dated 2025).

How the values were obtained:
[1] = biological target: T1, ULK1 (Homo sapiens, UniProt O75385); test: Inhibition of ULK1 protein activity (phosphorylation function), ADP-Glo method; assay type: biochemical
T1 construct: purchased Promega V3521
T1 sequence (O75385 1-1050): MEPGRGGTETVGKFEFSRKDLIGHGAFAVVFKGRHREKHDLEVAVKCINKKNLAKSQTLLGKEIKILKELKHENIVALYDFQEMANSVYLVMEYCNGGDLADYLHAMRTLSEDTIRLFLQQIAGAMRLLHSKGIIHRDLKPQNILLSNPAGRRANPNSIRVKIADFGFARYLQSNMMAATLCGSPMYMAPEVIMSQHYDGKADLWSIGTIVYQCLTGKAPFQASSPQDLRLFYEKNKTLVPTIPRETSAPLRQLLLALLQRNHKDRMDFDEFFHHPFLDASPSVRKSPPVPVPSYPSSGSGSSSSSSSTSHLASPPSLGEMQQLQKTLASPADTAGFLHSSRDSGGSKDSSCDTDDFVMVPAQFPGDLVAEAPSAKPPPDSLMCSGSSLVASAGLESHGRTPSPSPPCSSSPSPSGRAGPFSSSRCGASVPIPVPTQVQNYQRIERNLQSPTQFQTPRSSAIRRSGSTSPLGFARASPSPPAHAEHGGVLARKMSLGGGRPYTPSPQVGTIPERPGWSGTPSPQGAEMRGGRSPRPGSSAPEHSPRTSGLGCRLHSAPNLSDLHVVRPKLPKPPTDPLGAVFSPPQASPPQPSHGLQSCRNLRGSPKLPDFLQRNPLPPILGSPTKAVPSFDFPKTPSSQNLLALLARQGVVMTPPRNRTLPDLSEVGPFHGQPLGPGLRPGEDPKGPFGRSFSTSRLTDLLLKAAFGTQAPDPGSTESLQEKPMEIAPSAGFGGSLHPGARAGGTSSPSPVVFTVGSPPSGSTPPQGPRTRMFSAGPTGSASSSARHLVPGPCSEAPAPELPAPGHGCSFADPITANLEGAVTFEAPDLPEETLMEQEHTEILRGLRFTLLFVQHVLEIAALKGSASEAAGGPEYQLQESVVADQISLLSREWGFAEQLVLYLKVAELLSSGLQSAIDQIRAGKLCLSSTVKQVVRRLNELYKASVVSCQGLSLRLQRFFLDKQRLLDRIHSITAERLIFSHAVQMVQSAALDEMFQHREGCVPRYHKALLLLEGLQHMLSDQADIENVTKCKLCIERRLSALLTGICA
Procedure: In this experiment, the inhibitory effect of a compound on the phosphorylation function of ULK1 was detected by ADP-Glo method. The inhibitory effect of the compound of the present disclosure on the ULK1 target was evaluated based on IC50.
Compound formulation: Using an ECHO (Beckman, ECHO650), the compound was serially diluted 3-fold in DMSO in a 384-well plate (PE, 6007290). A total of 10 concentration points were set, with the maximum concentration of the compound being 10 µM, and 50 nL per well. Positive control wells and negative control wells were added with 50 nL DMSO, respectively.
Reaction process: A 32 nM of ULK1 (Promega, V3521) solution was formulated, and 2.5 µL/well was transferred to the compound test wells and the negative control wells (NC). 2.5 µL/well of 1× Assay buffer was added to the positive control wells (PC). A mixed solution of 100 µM of ATP and 1.86 µM of MBP was formulated, and 2.5 µL/well was transferred to the reaction plate. After centrifugation, the reaction was initiated and incubated at room temperature for 60 min. After the reaction was completed, 5 µL/well of ADP-Glo Reagent (Promega, V9102) was added to the reaction plate. After centrifugation, the reaction was incubated at room temperature for 40 minutes. Finally, 10 µL/well of Kinase Detection Buffer was added, followed by centrifugation and incubation at room temperature for 30 min. The chemiluminescence value was read using Envision (PE, Envision2105).
Assay buffer: a reaction buffer; and Kinase Detection buffer: a detection buffer, both were taken from the ADP-Glodetection kit, purchased from Promega, model V9102.
The inhibition ratio of a compound on ULK1 activity was calculated using the following formula: [formula]
The dose-effect curve was fitted using the log(inhibitor) vs. response -Variable slope of the analysis software GraphPad Prism 8, thereby affording the IC50 value of each compound for enzyme activity.

[2] = system: ATG13 phosphorylation level in MIA PaCa-2 cells; test: Inhibition of ATG13 phosphorylation level in MIA PaCa-2 cells (Phospho-Atg13 (ser355) ELISA); assay type: cell-based; conditions: Homo sapiens, Torin1 100 nM, 24 h incubation, 8 concentrations, highest 10 µM, read-out: pATG13 ELISA IC50
Procedure: The inhibitory effect of the compound of the present disclosure on ULK1 was evaluated by testing the inhibitory effect of the compound of the present disclosure on ATG13 phosphorylation level in MIA PaCa-2 cells.
MIA PaCa-2 cells (ATCC, CRM-CRL-1420) were cultured in a complete medium, namely, a DMEM medium (Gibco, 11965-092) containing 10% fetal bovine serum (Corning, 35-081-CV), 2.5% horse serum (Gibco, 16050-122) and 1% double antibody (Gibco, 15140-122). The experiments were performed according to the requirements of the kit (Cell Signaling Technology, 17208C).
Cell plating: MIA PaCa-2 at 80% growth confluence were digested, diluted with the complete medium, and added to a 96-well cell culture plate (Costar, 3596) at 20,000 cells per well, with a volume of 90 µL.
Compound incubation: 5 µL of Torin1 and 5 µL of a serially diluted compound were added to each well so that the highest concentration of the compound in the reaction system was 10 µM. 5-fold serial dilution with 8 concentrations was performed, and the final concentration of Torin1 was 100 nM. The DMSO content in the system was 0.1%. The reaction plate was placed in an incubator at 37°C in 5% CO2, and was incubated for 24 h. 10 µL of Torin1 was added to the negative control wells (NC) to a final concentration of 100 nM, with a DMSO content of 0.1%.
Reaction detection: After the incubation was completed, the cell plate was washed with a pre-cooled DPBS (Corning, 21-031-CVC) to wash away the compound and medium. 50 µL of pre-cooled cell lysis solution was added to each well, incubated on ice for 10 min. The cell plate was centrifuged, and the supernatant was transfered to an ELISA reaction plate. Simultaneously, 50 µL of Phospho-Atg13 (ser355) rabbit detection antibody was added, followed by incubation at room temperature under shaking for 60 min. After the incubation was completed, the reaction plate was washed with a washing solution for 4 times. 100 µL of TMB substrate was added for color development reaction, followed by incubation under shaded conditions with shaking for 15 min. Finally, 100 µL of stop solution was added to each well. The reaction was terminated by shaking for 10 s, and the absorbance value at 450 nm and 560 nm were collected within 10 min using Envision (Perkin Elmer, EnVision 2105).
The inhibition ratio was calculated by subtracting the absorbance value at […] from the absorbance value at 450 nm for each well. The inhibition ratio formula is as follows: [formula]
The dose-effect curve was fitted using the log (inhibitor) vs. response -Variable slope of Graphpad Prism8, thereby affording the IC50 value of each compound for inhibiting ATG13 phosphorylation level.

SMILES	IC50 [1] [nM]	IC50 [2] [nM]
CN1CCN2c3ccc(Nc4ncc(C(F)(F)F)c(OCCCc5ccccc5C#N)n4)cc3COCC2C1 (stereo not shown) [Compound 9]	< 100	100 to 1000
CN1CCN2c3ccc(Nc4ncc(C(F)(F)F)c(OCCCN5CCCCC5=O)n4)cc3COCC2C1 (stereo not shown) [Compound 3]	< 100	100 to 1000
CN1CCN2c3ccc(Nc4ncc(C(F)(F)F)c(NCCCN5CCCCC5=O)n4)cc3COCC2C1 (stereo not shown) [Compound 11]	< 100	< 100
CN1CCN2c3ccc(Nc4ncc(C(F)(F)F)c(N5CC6(CN(C)C6)C5)n4)cc3COCC2C1 (stereo not shown) [Compound 22]	< 100	100 to 1000
CN1CCN2c3ccc(Nc4ncc(C(F)(F)F)c(NC5CCN(C(=O)C6CCC6)CC5)n4)cc3COCC2C1 (stereo not shown) [Compound 21]	< 100	> 1000
CN1CCN2c3ccc(Nc4ncc(C(F)(F)F)c(OCCCn5cccn5)n4)cc3COCC2C1 (stereo not shown) [Compound 23]	< 100	> 1000
CN1CCN2c3ccc(Nc4ncc(C(F)(F)F)c(N5CCC6(CCN(C)C6)CC5)n4)cc3COCC2C1 (stereo not shown) [Compound 2]	< 100	> 1000
CN1CCN2c3ccc(Nc4ncc(C(F)(F)F)c(N5CCN(C)C(=O)C5)n4)cc3COCC2C1 (stereo not shown) [Compound 1]	100 to 1000	> 1000
CN1CCN2c3ccc(Nc4ncc(C(F)(F)F)c(N5CC6(CCN(C)C6)C5)n4)cc3COCC2C1 (stereo not shown) [Compound 20]	< 100	100 to 1000
CN1CCN2c3ccc(Nc4ncc(C(F)(F)F)c(N[C@H]5CC[C@@H](n6cccn6)CC5)n4)cc3COCC2C1 (stereo partly shown) [Compound 6]	< 100	100 to 1000
CN1CCN2c3ccc(Nc4ncc(C(F)(F)F)c(N5CCC6(CCN(C)C6)C5)n4)cc3COCC2C1 (stereo not shown) [Compound 5]	< 100	100 to 1000
CN1CCN2c3ccc(Nc4ncc(C(F)(F)F)c(N5CCC(n6cccn6)CC5)n4)cc3COCC2C1 (stereo not shown) [Compound 4]	< 100	> 1000
CN1CCN2c3ccc(Nc4ncc(C(F)(F)F)c(OCCCN5CCCCC5=O)n4)cc3OCC2C1 (stereo not shown) [Compound 12]	< 100	100 to 1000
CN1CCN2c3ccc(Nc4ncc(C(F)(F)F)c(NCCCn5cccn5)n4)cc3COCC2C1 (stereo not shown) [Compound 8]	< 100	> 1000
